Measurements: publication PMC6093421, “Identification and characterization of terpene synthase genes accounting for volatile terpene emissions in flowers of Freesia x hybrida” (Journal of Experimental Botany, 2018)

System: T1, FhTPS7
T1 construct: gene TPS7; full-length ORF (570 residues, no transit peptide, TPS-a clade) in pET-32a, E. coli BL21 (DE3), Ni-purified
Assay: GC-MS of hexane-extracted products, Michaelis-Menten non-linear fit
Format: biochemical, Freesia x hybrida
Details: 25 mM HEPES pH 7.4, 15 mM MgCl2, 5 mM DTT, 30 °C, 20 min
Source text: GC-MS of hexane-extracted products, Michaelis-Menten non-linear fit on FhTPS7

Row | Km (FPP 1–135 μM) | Km (GPP 3–270 μM) | SMILES
1 | 5.01 ± 0.21 µM |  | CC(C)=CCC/C(C)=C/CC/C(C)=C/COP(=O)(O)OP(=O)(O)O [FPP, farnesyl diphosphate]
2 |  | 3.71 ± 0.19 µM | CC(C)=CCC/C(C)=C/COP(=O)(O)OP(=O)(O)O [GPP, geranyl diphosphate]
